pIC50, pKi: −log10 of the molar value.
Columns and labels:
rhodesain = target: T1, rhodesain (Trypanosoma brucei rhodesiense, UniProt Q95PM0); test: Rhodesain protease inhibition assay (Z-Phe-Arg-AMC); type: biochemical
T1 construct: made in house
Method: (§1) Recombinant cruzain, rhodesain, TbCatB, falcipain-2 and falcipain-3 were expressed as described previously, [39], [40], [41], [42]. Inhibitor stock solutions were prepared in DMSO and screened at 0.1 µM for cruzain and rhodesain, 1 µM for TbCatB and 50 nM for falcipain-3 (0.5% DMSO in assay). […] Protease inhibition assays for cruzain and rhodesain were carried out in 96 well plate format as described previously. Cruzain (4 nM), rhodesain (4 nM) or TbCatB (258 nM) was incubated with test compound in 100 mM sodium acetate, pH 5.5, containing 5 mM DTT and 0.01% Triton X-100 (buffer A), for 5 min at room temperature (the higher concentration of TbCatB was required due to its lower intrinsic activity against the fluorogenic substrate). Then buffer A containing Z-Phe-Arg-AMC (Bachem) was added to enzyme-compound mixture to give 10 µM substrate in a final assay volume of 200 µL. The rate of free AMC release was measured at excitation and emission wavelengths of 355 and 460 nm, respectively, with a microtiter plate spectrofluorimeter (SpectraMax M5, Molecular Devices) for 3 min. Percentage inhibition of test compound was calculated relative to the DMSO control (0% inhibition control). IC50 values were determined with Prism 4 software (GraphPad, San Diego, CA) using sigmoidal dose-response variable slope model.

TbCatB = target: T2, TbCatB (Trypanosoma brucei, UniProt Q6R7Z5); test: TbCatB protease inhibition assay (Z-Phe-Arg-AMC); type: biochemical
T2 construct: made in house
T2 sequence (Q6R7Z5 23-340): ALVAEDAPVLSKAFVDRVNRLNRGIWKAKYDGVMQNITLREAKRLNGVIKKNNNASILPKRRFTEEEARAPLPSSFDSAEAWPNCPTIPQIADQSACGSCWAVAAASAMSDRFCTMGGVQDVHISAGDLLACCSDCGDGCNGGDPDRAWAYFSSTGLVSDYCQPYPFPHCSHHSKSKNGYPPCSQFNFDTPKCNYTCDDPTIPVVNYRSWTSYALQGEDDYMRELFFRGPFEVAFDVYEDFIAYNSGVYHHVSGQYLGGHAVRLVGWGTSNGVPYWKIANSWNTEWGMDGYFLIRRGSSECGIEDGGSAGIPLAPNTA
Method: as §1

cruzain = target: T3, cruzain (Trypanosoma cruzi, UniProt P25779); test: Cruzain protease inhibition assay (Z-Phe-Arg-AMC); type: biochemical
T3 construct: made in house
Method: as §1

[1] = tested on: T. brucei brucei clone 427-221a bloodstream forms; test: T. brucei brucei growth inhibition assay; type: cell-based; details: Trypanosoma brucei; 40 hours
Method: The growth inhibition assay for T. brucei brucei was conducted as described previously. Bloodstream forms of the monomorphic T. brucei brucei clone 427-221a were grown in complete HMI-9 medium containing 10% FBS, 10% Serum Plus medium (Sigma Inc. St. Louis Mo. USA), 50 U/mL penicillin and 50 µg/mL streptomycin (Invitrogen) at 37°C under a humidified atmosphere and 5% CO2. […] 5 µL of each dilution was added to 95 µL of diluted parasites (1×10^4 cells per well) in sterile Greiner 96-well flat white opaque culture plates such that the final DMSO concentration was 0.5%. The 0% inhibition control wells contained 0.5% DMSO while 100% inhibition control wells contained 50 µM thimerosal (Sigma). After compound addition, plates were incubated for 40 hours at 37°C. At the end of the incubation period, 50 µL of CellTiter-Glo™ reagent (Promega Inc., Madison, WI, USA) was added to each well and plates were placed on an orbital shaker at room temperature for 2 min to induce lysis. After an additional 10 min incubation without shaking to stabilize the signal, the ATP-bioluminescence of each well was determined using an Analyst HT plate reader (Molecular Devices, Sunnyvale, CA, USA). Raw values were converted to log10 and percentage inhibition calculated relative to the controls. IC50 curve fittings were performed with Prism 4 software as above.

[2] = tested on: intracellular T. cruzi (CA-I/72) in BESM cells; test: T. cruzi amastigote growth inhibition assay; type: cell-based; details: Trypanosoma cruzi; infected BESM cells, 72 hours
Method: (§2) The growth inhibition assay for the intracellular T. cruzi was conducted in 96-well plate format as described previously. Briefly, bovine embryo skeletal muscle (BESM) cells (2×10^3/well), seeded overnight, were infected with CA-I/72 T. cruzi trypomastigotes (2×10^3/well). Sixteen hours post-infection, test compounds (serial dilution concentrations starting from 20 µM) were added and assay plates were incubated for an additional 72 hours at 37°C with 5% CO2. Cells were then washed once in PBS, fixed with 4% paraformaldehyde and stained with DNA fluorescent dye DAPI (4′ 6-diamidino-2-phenylindole). The assay plates were then imaged in the IN Cell Analyzer 2000 (GE Healthcare) with the excitation and emission filters set of 350 nm and 460 nm, respectively, to detect DAPI signals. The feature extraction module in IN Cell Developer Toolbox 1.7 software was used to count host nuclei and parasite kinetoplasts by size difference.

[3] = Jurkat cell cytotoxicity assay; type: cell-based; details: human, Jurkat cells (clone E6-1), read-out: Cytotoxicity (% inhibition at 10 µM) Jurkat cells
Method: Jurkat cells (clone E6-1) were grown in complete RPMI-1640 medium containing 10% FBS, 50 U/mL penicillin and 50 µg/mL streptomycin (Invitrogen) at 37°C under a humidified atmosphere and 5% CO2. For cytotoxicity testing, cells were diluted to 1×10^5 per ml in complete RPMI-1640 medium. Test compound stocks were prepared in 100% DMSO and screened at 10 µM against cells (1×10^4 cells per well) in sterile Greiner 96-well flat white opaque culture plates (0.5% final DMSO concentration). The 0% inhibition control wells contained 0.5% DMSO while 100% inhibition control wells contained 40 µM staurosporine. After compound addition, plates were incubated for 40 hr at 37°C. At the end of the incubation period, 50 µL of CellTiter-Glo™ reagent (Promega Inc., Madison, WI, USA) was added to each well and plates were placed on an orbital shaker at room temperature for 2 min to induce lysis. After a further 10 min incubation without shaking to stabilize the signal, the ATP-bioluminescence of each well was determined using an Analyst HT plate reader (Molecular Devices, Sunnyvale, CA, USA). Calculations of percentage inhibition and IC50 were performed similar to those in the T. brucei brucei assay.

[4] = Toxicity toward host BESM cells in the T. cruzi assay; type: cell-based, bovine; details: bovine; highest assay concentration 20 µM
Method: as §2
All falcipain-3 inhibitors were also tested against falcipain-2. […] The entire library was examined for cytotoxicity to a mammalian cell line (Jurkat) at a concentration of 10 µM, and those compounds studied in the T. cruzi assay were also evaluated for toxicity (at 20 µM) toward the host BESM cells used in that assay. […]

human cathepsin L = target: human cathepsin L; design: method as in data provided by Celera Genomics; details: historical data; ref data provided by Celera Genomics; read-out: Ki catL; cited from earlier work
human cathepsin B = target: human cathepsin B; design: method as in data provided by Celera Genomics; details: historical data; ref data provided by Celera Genomics; read-out: Ki catB; cited from earlier work

T3 sequence (P25779 123-467): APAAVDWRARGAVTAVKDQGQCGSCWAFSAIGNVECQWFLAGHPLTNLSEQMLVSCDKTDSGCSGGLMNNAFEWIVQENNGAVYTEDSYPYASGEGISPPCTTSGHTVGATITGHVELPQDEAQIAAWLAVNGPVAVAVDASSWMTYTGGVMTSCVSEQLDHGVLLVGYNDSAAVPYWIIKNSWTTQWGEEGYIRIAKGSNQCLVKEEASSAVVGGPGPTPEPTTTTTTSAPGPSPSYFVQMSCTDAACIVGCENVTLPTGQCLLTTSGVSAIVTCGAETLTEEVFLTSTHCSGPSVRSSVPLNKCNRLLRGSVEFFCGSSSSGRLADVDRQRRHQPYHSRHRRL
T1 sequence (Q95PM0 entry or part of it): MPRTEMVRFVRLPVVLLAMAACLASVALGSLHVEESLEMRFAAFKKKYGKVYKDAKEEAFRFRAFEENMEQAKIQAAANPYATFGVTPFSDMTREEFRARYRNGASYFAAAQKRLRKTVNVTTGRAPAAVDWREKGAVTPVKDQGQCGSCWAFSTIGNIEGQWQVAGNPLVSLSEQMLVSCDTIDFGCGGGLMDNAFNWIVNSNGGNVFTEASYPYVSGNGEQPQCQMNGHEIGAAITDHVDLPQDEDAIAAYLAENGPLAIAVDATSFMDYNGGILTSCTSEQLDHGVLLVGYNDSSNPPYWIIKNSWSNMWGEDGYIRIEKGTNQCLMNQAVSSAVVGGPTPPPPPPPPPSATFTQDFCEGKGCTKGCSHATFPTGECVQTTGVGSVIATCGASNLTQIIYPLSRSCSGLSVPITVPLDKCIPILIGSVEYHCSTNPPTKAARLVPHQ

Compound: CCCCC(NC(=O)C(CCC)NC(c1ccc(-c2ccc(S(C)(=O)=O)cc2)cc1)C(F)(F)F)C(=O)c1nnc(-c2ccco2)o1 (stereo not drawn) [Compound 24]
- pIC50 (rhodesain): 8.22
- pIC50 (TbCatB): 7.30
- pIC50 (cruzain): 8.00
- GI50 [1]: 7000 nM
- GI50 [2]: 7600 nM
- cytotoxicity at 40 h, 10 µM [3]: < 5%
- GI50 at 72 h [4]: > 20000 nM
- pKi (human cathepsin L): 7.74
- pKi (human cathepsin B): 8.80
